The text below walks through data of patent US20240159706A1, “MALDI-MS METHOD, PHOTO-SENSITIVE MALDI MATRIX COMPOSITE AND PHOTO-CAGED MALDI MATRIX COMPOUND FOR USE IN SAID METHOD AND RESPECTIVE USES” (SIRIUS FINE CHEMICALS SICHEM GMBH, priority 2021, published 2024).

Like-named read-outs stand apart in the source and are kept apart here.

For data set [1] the following is noted: stated as known; cited from earlier work.
The nature of data set [2]: Solubility tests with Photo-caged MALDI Matrix Compounds in solvents/solvent systems. In kind it is physicochemical. The settings on record: for solubility: organic solvent or mixture, thermodynamic from solid, read-out: solubility (completely dissolved at 2.5 mg/mL). As to the method:
Photo-caged MALDI Matrix Compounds according to the invention were prepared as described in Example 1 above and tested for solubility in different solvents (including solvent systems). The solvents (including solvent systems) used in this Example 2 are listed here below in Table 1:
Around 1 mg of each Photo-caged MALDI Matrix Compound was weighed into an Eppendorf tube using an analytical balance. The calculated amount of selected solvent was added into the tube to generate a solution at a maximal concentration of 2.5 mg/mL. An ultrasonic bath was used for max. 3 min. to accelerate the dissolving process.
The numbers of the compounds used in this Example 2 refer to the example numbers of Example 1 above. In Table 2 below, the mark “X” in a cell means, that the respective compound was completely dissolved in the respective solvent or solvent system in a concentration of 2.5 mg/mL.

A short description of data set [3]: Additional vacuum stability test, compounds sprayed on ITO slides with porcine brain tissue sections (Example 4a). The format is physicochemical. The note with it: 21 hrs, about 35° C., vacuum up to about 1.4×10^−7 mbar. As to the method: In a separate experiment, frozen porcine brain tissue was sectioned into 10 μm slices using a Leica CM1950 clinical cryostate (Leica Biosystems, Germany) at a chamber temperature of −15° C. and a head temperature of −10° C. The tissue sections were thaw-mounted onto ITO glass slides and dried for 20 min under vacuum. The ITO glass object slides with tissue sections were then sealed and stored at −80° C. until analysis. Shortly before usage, the slides were taken out from the freezer and thawed at room temperature for 20 min. under vacuum.
Photo-caged MALDI Matrix Compounds of Examples Ex. 1.1 (DMNB-2,5-DHAP), 1.7 (CNB-2,5-DHAP), 1.8 (PMNB-2,5-DHAP) and 1.9 (DMNBC-2,5 DHAP) were dissolved (Ex. 1.1: 2.5 mg/mL in standard solvent according to table 2 above; Ex.: 1.7 and 1.8:2.5 mg/mL in acetonitrile/water 7:3 (v/v)+0.1% trifluoroacetic acid; Ex. 1.9: saturated solution <2.5 mg/mL in acetonitrile/water 8:2 (v/v)+0.1% trifluoroacetic acid) and sprayed onto the ITO slides as prepared above, including to the porcine brain tissue sections thereof (see above) with a HTX M5 sprayer (HTX Technologies, USA), spray parameters: temperature of spray nozzle/tray: 50° C./25° C., Spray nozzle velocity 1000 mm/min; nozzle height: 40 mm. Twenty passes with a flow rate of 60 μL/min and a pressure of 10 psi were sprayed. Optical images of the sprayed slides were then recorded before incubation and after incubation in an ultrafleXtreme™ MALDI TOF mass spectrometer (see above) for 21 hrs at about 35° C. and a vacuum of up to about 1.4×10^−7 mbar.

Data set [4] in a line: Crystallisation test by spray method. The format is physicochemical. The note with it: on ITO object slide, by scanning electron microscopy. As to the method: The Photo-caged MALDI Matrix Compound of Ex. 1.1 according to the invention was prepared as described in Example 1 above and spray-tested for its crystallization properties in a spraying method on (i) an indium tin-oxide (ITO) object slide and (ii) on a sliced sample of porcine brain.
In each case, a solution of the Photo-caged MALDI Matrix Compound of Ex. 1.1 (concentration 2.5 mg/mL in acetonitrile/water v/v 4/1) was sprayed onto the surfaces of (i) an ITO object slide and (ii) on a sliced sample of porcine brain with a MALDI HTX M5 Sprayer™ (by HTX Technologies, LLC, USA).
The operating parameters applied were as follows: Temperature of spraying nozzle: 50° C./flow rate: 0.06 mL/min/speed of spraying nozzle: 1000 mm/min/spraying distance: 40 mm.
The resulting crystals on (i) an ITO object slide and (FIG. 1 to 3) (ii) on a sliced sample of porcine brain (FIG. 4 to 5) where then analyzed by optical scanning (in 20-fold magnification) and by scanning electron microscopy (in 5000-fold and 10000-fold magnification), as shown in FIG. 1 to 5.

Consider `CC(=O)c1c(O)cccc1O` [2,6-DHAP, 2,6-dihydroxyacetophenone], for which the “sensitivity to vacuum conditions” value in data set [1] was “extremely sensitive to vacuum conditions and volatile”.
Regarding `COc1cc(COc2ccc(O)c(C(C)=O)c2)c([N+](=O)[O-])cc1OC` [Ex. 1.1, 1-(5-((4,5-Dimethoxy-2-nitrobenzyl)oxy)-2-hydroxyphenyl)ethan-1-one], the “solubility (completely dissolved at 2.5 mg/mL)” value in data set [2] (Solvent 5: Methanol/water (v/v 90/10)), in data set [2] (Solvent 7: Methanol/water (v/v 90/10) + 50 mM (final conc.) NH4HCO3), in data set [2] (Solvent 8: Methanol/water (v/v 85/15)), in data set [2] (Solvent 9: Methanol/water (v/v 85/15) + 0.1% trifluoroacetic acid) and in data set [2] (Solvent 10: Methanol/water (v/v 85/15) + 50 mM (final conc.) NH4HCO3) was “◯” each time. Moreover, the solubility in data set [2] (Solvent 1: Acetonitrile), in data set [2] (Solvent 2: Acetonitrile/water (v/v 90/10)), in data set [2] (Solvent 3: Acetonitrile/water (v/v 90/10) + 0.1% trifluoroacetic acid), in data set [2] (Solvent 4: Acetonitrile/water (v/v 85/15) + 0.1% trifluoroacetic acid) and in data set [2] (Solvent 6: Methanol/water (v/v 90/10) + 0.1% trifluoroacetic acid) was above 2500 µg/mL in each case. The “solubility in the solvents or solvent systems under review” value in data set [2] (overall rating from Table 2, Solvents 1-10) is given as “very good solubility”. Besides, the “presence on ITO slides / porcine brain tissue sections after incubation under vacuum” value in data set [3] was “best results”. In addition, the “average size of the resulting crystals” value in data set [4] was “about 1 μm”.
